Key:
KDM4E = molecular target: T1, KDM4E (Homo sapiens, UniProt B2RXH2); assay: MALDI–TOF MS time course / specific activity, KDM4E; assay type: biochemical
T1 construct: KDM4E1–337; made in house; host or cells: E. coli
T1 sequence (B2RXH2 1-337): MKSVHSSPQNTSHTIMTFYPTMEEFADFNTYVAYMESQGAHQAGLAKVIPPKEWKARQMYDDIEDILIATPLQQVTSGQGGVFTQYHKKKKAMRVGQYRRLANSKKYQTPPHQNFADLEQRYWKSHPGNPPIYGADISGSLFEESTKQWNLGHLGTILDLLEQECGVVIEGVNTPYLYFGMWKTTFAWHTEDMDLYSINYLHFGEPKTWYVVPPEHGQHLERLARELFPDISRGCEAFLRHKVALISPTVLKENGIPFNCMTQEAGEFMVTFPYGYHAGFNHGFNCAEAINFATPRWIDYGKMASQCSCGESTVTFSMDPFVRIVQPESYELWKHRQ
Protocol: (§1) MS-based screening assays with peptides and calf thymus histones were as reported; see Supplementary Table 6 for conditions. Time course assays were based on reported procedures. In brief, equal volumes of the enzyme and substrate solutions were combined to initiate the reaction; 10 µL of 2% (v/v) formic acid (HCOOH) in ddH2O or 100% methanol was added to 10 µL of the reaction mixture to quench reactions at different time points. Unless otherwise stated, time course assays were carried out in triplicate. In some cases, LC–MS was used instead of MALDI-TOF MS to avoid a MALDI matrix induced artefact with the hydroxylated product (Supplementary Fig. 16).
Data collected from time course assay(s) were used to plot the % conversion vs time (min) using GraphPad Prism5 version 5.04; the resultant slopes were used to fit a line with linear regression to the first-order region of the reaction. The resultant gradient was then converted from % product formation min^−1 to amount of peptide converted (demethylation and / or hydroxylation) in µM.
Supplementary Figure 4 Activity of KDM5C (black circles) with H2a(1–20)R3me2a is greater than that of KDM4E (white circles). (a) A MALDI–TOF MS time course graph of product formation (%) of KDM4E ( −14 Da/+16 Da) and KDM5C (−14 Da) reaction with H2a(1–20)R3me2a versus time (minutes). ~60% substrate depletion was reached after 105 minutes with KDM4E; ~95% of H2a(1–20)R3me2a was demethylated after 1 05 minut e s wit h K DM5 C. (b ) Comparison of specific activities of KDM4E with H2a(1–20)R3me2a (0.15 […]
bars; +/- SD; n = 3 (independent assays). See Supplementary Table 6 for assay condit ions.
(also on this page, place not known: 105 minutes KDM5C. (b) H2a(1 –20)R3me2a with conditions. specific activity (pmol·min-1·μM-1))
(1 picture or pasted object on this page, not shown here)
(§2) [ E nz ym e] [Peptide] [2OG] [Ascorbate] [(NH4)2F e(S O4)2] [TCEP] Buffer pH7.5 Enzyme Cognate substrate (mM) (mM) (mM) (mM) (mM) (mM) [HE PE S]
(§3) Supplementary Table 6 Summary of MS assay conditions for substrate screening. These conditions enabled efficient turnover of established substrates. Reactions were carried out at 37 °C unless otherwise st ated. […]

KDM5A = assay: MALDI–TOF MS demethylation/+16 Da assay, KDM5A; assay type: biochemical, human; settings: 90 min
Source text: Fig. 2 Histone H2a fragments are KDM5 and KDM4 substrates. […] See Supplementary Table 6 and Supplementary Fig. 2 for assay conditions and quantification, respectively. […] 0-minute MS spectrum in black, 60/90-minute spectrum in red.
as §1, with “16). […]” for “16).”
Supplementary Figure 2 Histone H2a peptide fragments are substrates of KDM4s and KDM5s.
2 for representative corresponding MALDI–TOF MS traces. Bar graphs comparing % product format ion (+16 Da and demethylation) of H2a(1–20)R3me2a by (a) K DM5 A–D (after 90 minutes) and (b) KDM4A–E ( a ft er 60 minutes), analysed by MALDI– TOF MS. n = (a) 2, (b) 3 (independent assays). See Supplementary Table 6 for assay condit ions. See Figure S13 A 1 for a positive control.
(also on this page, place not known: formation KDM5A–D (after MALDI–TOF conditions. Figure S13A1 KDM4A KDM4B KDM4C KDM4D KDM4E 80% product formation KDM5A KDM5B KDM5C KDM5D % product formation) […]
as §2, §3

product formation (−14 Da/+16 Da) (KDM4E; 0 min, replicate 1): 0%
product formation (−14 Da/+16 Da) (KDM4E; 0 min, replicate 2): 0%
product formation (−14 Da/+16 Da) (KDM4E; 0 min, replicate 3): 0%
product formation (−14 Da/+16 Da) (KDM4E; 5 min, replicate 1): 3.341%
product formation (−14 Da/+16 Da) (KDM4E; 5 min, replicate 2): 5.787%
product formation (−14 Da/+16 Da) (KDM4E; 5 min, replicate 3): -0.8025%
product formation (−14 Da/+16 Da) (KDM4E; 15 min, replicate 1): -0.9416%
product formation (−14 Da/+16 Da) (KDM4E; 15 min, replicate 2): 5.091%
product formation (−14 Da/+16 Da) (KDM4E; 15 min, replicate 3): -0.7355%
product formation (−14 Da/+16 Da) (KDM4E; 30 min, replicate 1): 22.6189%
product formation (−14 Da/+16 Da) (KDM4E; 30 min, replicate 2): 32.3989%
product formation (−14 Da/+16 Da) (KDM4E; 30 min, replicate 3): 20.757%
product formation (−14 Da/+16 Da) (KDM4E; 45 min, replicate 1): 29.5376%
product formation (−14 Da/+16 Da) (KDM4E; 45 min, replicate 2): 33.3686%
product formation (−14 Da/+16 Da) (KDM4E; 45 min, replicate 3): 28.8806%
product formation (−14 Da/+16 Da) (KDM4E; 60 min, replicate 1): 41.1416%
product formation (−14 Da/+16 Da) (KDM4E; 60 min, replicate 2): 35.7562%
product formation (−14 Da/+16 Da) (KDM4E; 60 min, replicate 3): 37.6375%
product formation (−14 Da/+16 Da) (KDM4E; 75 min, replicate 1): 48.3844%
product formation (−14 Da/+16 Da) (KDM4E; 75 min, replicate 2): 47.469%
product formation (−14 Da/+16 Da) (KDM4E; 75 min, replicate 3): 46.9153%
product formation (−14 Da/+16 Da) (KDM4E; 90 min, replicate 1): 60.0026%
product formation (−14 Da/+16 Da) (KDM4E; 90 min, replicate 2): 49.7939%
product formation (−14 Da/+16 Da) (KDM4E; 90 min, replicate 3): 54.7629%
product formation (−14 Da/+16 Da) (KDM4E; 105 min, replicate 1): 62.5982%
product formation (−14 Da/+16 Da) (KDM4E; 105 min, replicate 2): 62.265%
product formation (−14 Da/+16 Da) (KDM4E; 105 min, replicate 3): 60.6438%
substrate depletion (KDM4E; KDM4E, 105 minutes): ~ 60%
specific activity (KDM4E; KDM4E, mean of n = 3, SD 0.010): 0.15 pmol min^−1 µM^−1
specific activity (KDM4E; KDM4E, repeat 1): 0.1634 pmol·min-1·μM-1
specific activity (KDM4E; KDM4E, repeat 2): 0.141 pmol·min-1·μM-1
specific activity (KDM4E; KDM4E, repeat 3): 0.1586 pmol·min-1·μM-1
Substance: Ac - SGR [ me 2a ] GKQ GGKAR AKAKT R SSR [H2a(1–20)R3me2a, H2a(1–20)R3me2a without a biotin tag]
+16 Da (% product formation) (KDM5A; replicate 1): 0%
demethylation (% product formation) (KDM5A; replicate 1): 52.427%
+16 Da (% product formation) (KDM5A; replicate 2): 0%
demethylation (% product formation) (KDM5A; replicate 2): 53.348%

— PMC11603075 (Communications Biology, 2024)
